Experimental data from patent US20080107625A1, “Inhibitors of Hepatitis C Virus” (Bristol-Myers Squibb Company, priority 2006, published 2008).

Columns and labels:
human liver cathepsin B = target: T1, human liver cathepsin B (Homo sapiens, UniProt P07858); experiment: Specificity assay, cathepsin B; type: biochemical
T1 construct: purchased Sigma or EMDbiosciences; host or cells: human liver (as named)
Method: The specificities of compounds of the present disclosure were determined against a variety of serine proteases: human neutrophil elastase (HNE), porcine pancreatic elastase (PPE) and human pancreatic chymotrypsin and one cysteine protease: human liver cathepsin B. In all cases, a 96-well plate format protocol using colorimetric p-nitroaniline (pNA) substrate or fluorometric Amino-Methyl-Coumarin (AMC) substrate, specific for each enzyme was used as described previously (PCT Patent Application No. WO 00/09543) with some modifications. All enzymes were purchased from Sigma or EMDbiosciences while the substrates were from Bachem.
Each pNA assay included a 2 h enzyme-inhibitor pre-incubation at room temperature followed by addition of substrate and hydrolysis to ˜15% conversion as measured on a Spectramax Pro microplate reader. The cathepsin B assay was initiated by adding substrate to a 10 min enzyme-inhibitor pre-incubation at room temperature, and the assay plate measured immediately using the Cytofluor Series 4000. Compound concentrations varied from 100 to 0.4 μM depending on their potency. […]
The percentage of inhibition was calculated using the formula: [1−((UVinh−UVblank)/(UVctl−UVblank))]×100 […]

[1] = target: HCV NS3/4A protease complex, BMS strain (Hepatitis C virus genotype 1a, UniProt P27958, C1454S/C1711G); experiment: FRET peptide assay to monitor HCV NS3/4A proteolytic activity (BMS strain); type: biochemical; conditions: read-out: IC50 against the NS3/4A BMS strain in the enzyme assay
From the text: HCV NS3 protease complexes, derived from the BMS strain, H77 strain or J4L6S strain, were generated, as described below. These purified recombinant proteins were generated for use in a homogeneous assay (see below) to provide an indication of how effective compounds of the present disclosure would be in inhibiting HCV NS3 proteolytic activity.
Serum from an HCV-infected patient was obtained from Dr. T. Wright, San Francisco Hospital. […]
In order to monitor HCV NS3/4A protease activity, an NS3/4A peptide substrate was used. […] The peptide also contains a fluorescence donor, EDANS, near one end of the peptide and an acceptor, DABCYL, near the other end. The fluorescence of the peptide is quenched by […] resonance energy transfer (RET) between the donor and the acceptor, but as the NS3 protease cleaves the peptide the products are released from RET quenching and the fluorescence of the donor becomes apparent.
The peptide substrate was incubated with one of the three recombinant NS3/4A protease complexes, in the absence or presence of a compound of the present disclosure. The inhibitory effects of a compound was determined by monitoring the formation of fluorescent reaction product in real time using a Cytofluor Series 4000. […]

HCV NS3/4A protease complex, BMS strain, sequence (P27958 1027-1711 C1454S/C1711G, one chain of several): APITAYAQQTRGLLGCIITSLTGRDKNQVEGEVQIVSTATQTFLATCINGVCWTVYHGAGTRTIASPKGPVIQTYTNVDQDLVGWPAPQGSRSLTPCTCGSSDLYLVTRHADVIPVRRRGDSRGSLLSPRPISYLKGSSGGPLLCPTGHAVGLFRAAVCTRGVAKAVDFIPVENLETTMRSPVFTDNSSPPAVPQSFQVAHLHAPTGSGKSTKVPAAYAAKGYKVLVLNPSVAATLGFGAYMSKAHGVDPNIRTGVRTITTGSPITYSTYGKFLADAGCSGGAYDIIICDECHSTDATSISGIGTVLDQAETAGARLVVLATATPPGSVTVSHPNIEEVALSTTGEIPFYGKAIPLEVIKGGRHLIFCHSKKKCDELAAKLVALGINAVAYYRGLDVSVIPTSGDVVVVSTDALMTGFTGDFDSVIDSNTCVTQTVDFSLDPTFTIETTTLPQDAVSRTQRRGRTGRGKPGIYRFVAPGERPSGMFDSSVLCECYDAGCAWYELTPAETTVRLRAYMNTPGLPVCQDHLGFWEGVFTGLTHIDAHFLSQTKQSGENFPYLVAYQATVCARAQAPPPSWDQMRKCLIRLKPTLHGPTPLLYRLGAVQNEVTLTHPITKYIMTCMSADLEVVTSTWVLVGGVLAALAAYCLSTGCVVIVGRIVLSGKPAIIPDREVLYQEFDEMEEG

CC(C)(C)OC(=O)N[C@H]1CN(C2CC2)CCC/C=C\C2C[C@@]2(C(=O)NS(=O)(=O)C2CC2)NC(=O)[C@@H]2C[C@@H](Oc3ccccn3)CN2C1=O (some centres unmarked) [Compound 1]
IC50 (human liver cathepsin B): > 100000 nM
IC50 [1]: 98 nM
